Source: patent publication US7709645B2, “Pyrrolo-pyridine kinase modulators” (SGX Pharmaceuticals, Inc., priority 2004, dated 2010)
Where a chain is given by its changes, count along the chain named. pIC50: −log10 of the molar value.

Experiments:
[1] = molecular target: T1, Abl T315I kinase domain (unphosphorylated) (Mus musculus, UniProt P00520, T315I); assay: Abl_T315I Bioassay (c-Abl PK/LDH coupled enzyme assay); format: biochemical; conditions: 10 μM ATP
T1 construct: purified and unphosphorylated T315I Abl kinase domain; made in house; host or cells: E. coli BL21(DE3) strains
T1 sequence (P00520 242-493 T315I limits assumed): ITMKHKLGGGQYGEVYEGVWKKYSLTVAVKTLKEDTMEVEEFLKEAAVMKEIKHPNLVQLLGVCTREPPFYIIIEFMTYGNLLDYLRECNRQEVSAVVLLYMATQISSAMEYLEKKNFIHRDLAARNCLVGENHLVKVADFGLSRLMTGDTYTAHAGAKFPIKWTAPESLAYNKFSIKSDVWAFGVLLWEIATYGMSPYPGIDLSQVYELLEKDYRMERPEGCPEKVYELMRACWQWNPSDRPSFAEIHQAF
Excerpt: Although the first of these examples uses the kinase domain of a mutant form of Abl T315I (“Abl T315I KD”), the kinase assays may use various forms of mutant and wild type enzymes, including, for example, the entire protein, the kinase domain, or a portion thereof (e.g. Abl Y393F). The kinases used in the assays may also be of varying phosphorylation states. In the c-Abl example, a mutant kinase at a zero phosphorylation state was used.
In the c-Abl Pyruvate Kinase (PK)/Lactate Dehydrogenase (LDH) Coupled Assay the protein kinase dependant phosphorylation of a substrate peptide was coupled to the oxidation of NADH. The oxidation of NADH to NAD+ was detected by monitoring a decrease in absorbance at 340 nm.
Materials: Abl substrate peptide=EAIYAAPFAKKK (SEQ ID NO:1)-OH (Biopeptide, San Diego, Calif.); βNADH (Sigma Cat#N-8129, FW=709.4); 2M MgCl2; 1M HEPES buffer, pH 7.5; Phosphoenolpyruvate (PEP) (Sigma Cat#P-7002, FW=234); Lactate dehydrogenase (LDH) (Worthington Biochemical Cat#2756); Pyruvate Kinase (PK) (Sigma Cat#P-9136); ATP (Sigma Cat#A-3377, FW=551); Greiner 384-well UV star plate; and purified and unphosphorylated T315I Abl kinase domain.
Stock Solutions: 10 mM NADH (7.09 mg/ml in miliQH2O) made fresh daily; 10 mM Abl substrate peptide (13.4 mg/ml in miliQH2O) stored at −20° C.; 100 mM HEPES buffer, pH 7.5 (5 ml 1M stock+45 ml miliQH2O); 100 mM MgCl2 (5 ml 2M MgCl2+95 ml dH2O); 100 mM PEP (23.4 mg/ml in dH2O) stored at −20° C.; 10 mM ATP (5.51 mg/ml in dH2O) stored at −20° C. (diluted 50 μl into total of 10 ml miliQH2O daily=50 μM ATP working stock); 1000 U/ml PK (U/mg varies with lot) flash-frozen under liquid N2 and stored at −80° C.; and 1000 U/ml LDH (U/mg varies with lot) flash-frozen under liquid N2 and stored at −80° C.
Standard Assay Setup for 384-well format (50 μl reaction): 300 μM NADH; 10 mM MgCl2; 2 mM PEP; 45 U/ml PK; 60 U/ml LDH; 200 μM Abl substrate peptide; 2.5 μl test compound (in DMSO); 2 μg/ml Abl kinase domain; 10 μM ATP; 100 mM HEPES buffer. Positive controls contained DMSO with no test compound. Negative controls contained 5 μl of 0.5M EDTA (50 mM in the assay). The dephosphorylated form of the c-Abl T315I mutant was used in the biochemical screening assays. The kinase reaction was initiated at time t=0 by the addition of ATP.
Activity was measured by following the time-dependent loss of NADH by absorbance spectroscopy at 340 nm. The linear portion of the resulting progress curve was then analyzed by linear regression to get the activity in absorbance units/time, reported as the slope of that best fit line (moles/unit time can be calculated from using molar extinction coefficient for NADH at 340 nm, 6250M^−1 cm^−1).
Data was evaluated using the equation: Z′=1−[3*(σ++σ−)/|μ+−μ−|](Zhang, et al., 1999 J Biomol Screening 4(2) 67-73), where μ denotes the mean and σ the standard deviation. The subscript designates positive or negative controls. The Z′ score for a robust screening assay should be ≧0.50. The typical threshold=μ+−3*σ+. Any value that falls below the threshold was designated a “hit”.
Dose response was analyzed using the equation: y=min+{(max−min)/(1+10^[compound]−logIC50)}, where y is the observed initial slope, max=the slope in the absence of inhibitor, min=the slope at infinite inhibitor, and the IC50 is the [compound] that corresponds to ½ the total observed amplitude (Amplitude=max−min).
To measure modulation, activation, or inhibition of Abl KD, a test compound was added to the assay at a range of concentrations. Inhibitors may inhibit Abl KD activity at an IC50 in the micromolar range, the nanomolar range, or, for example, in the subnanomolar range.
An open-reading frame for c-Abl was amplified from a Mus musculus (mouse) cDNA library prepared from freshly harvested mouse liver using a commercially available kit (Invitrogen) by PCR using the following primers: […]
The c-Abl T315I KD (kinase domain) was purified as follows. […]

[2] = molecular target: T2, T315I mutant form of BCR-ABL in Ba/F3 cells (Homo sapiens, UniProt P00519, T315I); assay: Abl_T315I p-ELISA Cellular Assay (BCR-ABL phospho-ELISA); format: cell-based; conditions: 60-120 minutes incubation
T2 construct: expressed in transfected cells; host or cells: Ba/F3 cells; the other entry of the earlier key: BCR (P11274, Breakpoint cluster region protein)
T2 sequence (P00519 242-493 T315I limits assumed): T1 sequence (P00520 242-493 T315I limits assumed) with S95N
Protocol: Cells (Ba/F3 cells transfected with WT BCR-ABL, other kinases, or T315I, Y253F, M351T, E255K, or other mutant forms of BCR-ABL) were grown in the absence of IL-3 at least ½ week before the assay. The day before assay, the cells were fed with fresh media so that at the time of assay the cells were in log phase. Ba/F3 cells that had been grown in the absence of IL-3 for at least ½ week were resuspended in RPMI 1640 so that each well of a 96-well plate would contain approximately 200,000 cells. Cells were distributed in a 96-well plate containing serially diluted concentrations of test compounds. Cells were typically incubated with or without test compounds for 60-120 minutes at 5% CO2, 37° C. The incubation was performed with or without other additives such as 10% FCS or 50% human plasma. After incubation of compounds, lysis buffer was added and incubated for 10-15 minutes; the lysate was cleared by centrifugation.
To make the ELISA plate, commercially available Anti-ABL antibodies (e.g. (Ab-3, Calbiochem OP20) were prepared at a concentration of 0.125 μg/ml in coating buffer (0.1M Na-carbonate, pH 9.5), and plated at 10 ml per plate (12.5 μl 100 μg/ml Ab/10 ml). In a high binding multi-well plate, 100 μl Ab in coating buffer were added to each well, and each plate was covered with a plate seal and incubated overnight at 4° C.
Excess antibody was removed and the ELISA plate was washed 3-4 times with 200 μl of wash buffer (0.05% Tween in PBS, pH 7.4). 150 μl of lysate (see above) were transferred to the ELISA plate. Plates were sealed and incubated 2 hours at room temperature. The detection antibody (e.g. HRP conjugated anti-pTyr or unconjugated α-p-Y 4G10, Upstate) was prepared in assay diluent. The antibody was diluted 1:1000 (stock=2 μg/μl, 200 μg in 100 μl; f.c.=2 μg/ml) in assay diluent and 10 ml of diluted antibody per plate were added. The lysate was removed from the ELISA plates, and wells were washed four times with 200 μl of wash buffer per well. 100 μl of detection antibody was added to each well; the plate was covered, and incubated 1 hr at room temperature (21° C.). Excess detection antibody was removed from the ELISA plates, and the wells were washed four times with 200 μl of wash buffer per well.
If necessary, (i.e. for unconjugated anti-pTyr antibody) secondary antibody (goat anti-rabbit HRP) was diluted 1:3000 in assay diluent (3.33 μl per 10 ml diluent) and added at 10 ml of diluted antibody per plate. Excess secondary antibody was removed from the ELISA plate, and the plate was washed four times with 200 μl per well of wash buffer.
Substrate Reagent A and Substrate Reagent B (Pierce Cat#37070 SuperSignal ELISA Pico Chemiluminescent Substrate) were added immediately before use (10 ml resultant solution per plate). 100 μl substrate were added per well, mixed for 1 minute, and chemiluminescent signal was measured with a luminometer.

Row | pIC50 [1] | pIC50 [2] | SMILES
1 | > 7.30 | 6.00 to 7.00 | COc1ccccc1-c1c[nH]c2ncc(-c3csc(C(=O)N4CCN(C)CC4)c3)cc12 [AE4]
2 | > 7.30 | > 7.00 | COc1ccccc1-c1c[nH]c2ncc(-c3cncc(C(=O)N(C)CCN(C)C)c3)cc12 [AE5]
3 | > 7.30 | > 7.00 | COc1ccccc1-c1c[nH]c2ncc(-c3cccc(C(=O)N4CCC(CO)CC4)c3)cc12 [AE6]
4 | > 7.30 | > 7.00 | COc1ccccc1-c1c[nH]c2ncc(-c3cccc(C(=O)N4CCN(C(C)C)CC4)c3)cc12 [AE7]
5 | > 7.30 |  | COc1ccccc1-c1c[nH]c2ncc(-c3ccc4c(c3)C(=O)NCC(=O)N4)cc12 [AE12]
6 | > 7.30 | 6.00 to 7.00 | CCc1ccccc1-c1c[nH]c2ncc(-c3cncc(C(=O)N(C)C)c3)cc12 [AE15]
7 | > 7.30 | 6.00 to 7.00 | CCOc1ccccc1-c1c[nH]c2ncc(-c3cncc(C(=O)N(C)C)c3)cc12 [AE16]
8 | > 7.30 |  | CCOc1ccccc1-c1c[nH]c2ncc(-c3cncc(C(=O)NC)c3)cc12 [AE17]
9 | > 7.30 | 6.00 to 7.00 | CCc1ccccc1-c1c[nH]c2ncc(-c3ccnc(F)c3)cc12 [AE18]
10 | > 7.30 | 6.00 to 7.00 | COc1ccccc1-c1c[nH]c2ncc(-c3c[nH]cn3)cc12 [AE19]
11 | > 7.30 |  | COc1ccccc1-c1c[nH]c2ncc(-c3cccc(C(=O)N(C)CCN(C)C)c3)cc12 [AE23]
12 | > 7.30 |  | COc1ccccc1-c1c[nH]c2ncc(-c3cccc(C(=O)N4CCN(CCN5CCOCC5)CC4)c3)cc12 [AE24]
13 | > 7.30 | > 7.00 | COc1ccccc1-c1c[nH]c2ncc(-c3ccc(O)c(C(=O)N(C)CCN(C)C)c3)cc12 [AE25]
14 | > 7.30 | 6.00 to 7.00 | O=C(c1cccc(-c2cnc3[nH]cc(-c4ccccc4F)c3c2)c1)N1CCOCC1 [AE29]
15 | > 7.30 | > 7.00 | COc1cccc(OC)c1-c1c[nH]c2ncc(-c3cccc(C(=O)N4CCOCC4)c3)cc12 [AE37]
16 | > 7.30 |  | Oc1cccc(-c2cnc3[nH]cc(-c4ccoc4)c3c2)c1 [AE47]
17 | 6.70 to 7.30 |  | Oc1cccc(-c2cnc3[nH]cc(Sc4ccccc4)c3c2)c1 [AE51]
